The results in this text go back to BindingDB's records for patent US11472811 (BEIGENE, LTD., 2022).

pIC50: −log10 of the molar value.

The experiment deals with Adenosine receptor A2a (Homo sapiens, UniProt P29274). Briefly: Luciferase Reporter Assay. The method, then: HEK293-A2AR-luc2p/CRE/Hygro cells were seeded at a density of 5,000 cells/well in DMEM with 1% FBS and 1 U/mL adenosine deaminase (ADA) (Sigma). After 18 h, the cells were treated with 3 nM CGS21680 plus a series dilution of A2AR antagonist, the compounds disclosed herein at the concentration of 0.1 10000 nM, prepared in DMEM with 1% FBS. After 5 h incubation, the luciferase activity in cells were measured using the Bright-Glo Luciferase Assay System (Promega) according to manufacturer's instructions. The luminescence signal was measured using a PHERAstar FS plate reader (BMG Labtech). […] Maximal luminescence intensity was determined in the presence of 3 nM CGS21680 and was set as 100%. The IC50 value was calculated from a dose dependent inhibition curve across the range of compound concentrations.
Chain of Adenosine receptor A2a (P29274 whole entry): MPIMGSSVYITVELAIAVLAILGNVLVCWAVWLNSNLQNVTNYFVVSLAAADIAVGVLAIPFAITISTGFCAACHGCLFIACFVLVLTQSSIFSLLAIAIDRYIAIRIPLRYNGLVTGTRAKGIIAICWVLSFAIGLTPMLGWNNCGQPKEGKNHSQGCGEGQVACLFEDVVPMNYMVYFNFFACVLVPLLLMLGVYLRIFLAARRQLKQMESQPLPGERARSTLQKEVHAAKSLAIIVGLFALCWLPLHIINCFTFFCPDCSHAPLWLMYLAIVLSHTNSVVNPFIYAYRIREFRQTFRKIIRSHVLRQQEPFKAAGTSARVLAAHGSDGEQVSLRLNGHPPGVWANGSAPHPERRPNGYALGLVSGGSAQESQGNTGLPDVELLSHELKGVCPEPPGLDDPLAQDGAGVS

In general, pIC50 refers to the IC50 on a negative log10 scale, so that one unit is a factor of ten. In turn, `C[C@@](C(=O)O)(c1ccccc1)n1ncc2c1nc(N)n1nc(-c3ccco3)nc21` [US11472811, Example Intermediate-Ia] showed a pIC50 of 6.71.
